Experimental data from ChEMBL document CHEMBL5120764, “Isarubrolone C Promotes Autophagic Degradation of Virus Proteins via Activating ATG10S in HepG2 Cells” (J Nat Prod, 2022).
Active and inactive are the calls of the source.

Experiments:
Assay type in all cases: functional, cell-based
[1] = test system: HepG2; experiment: Induction of autophagy in human HepG2 cells transfected with HIV-RT assessed as increase in HIV-RT-LC3B interaction level at 10 uM incubated for 24 hrs in presence of anti-Flag antibodies by co-immunoprecipitation assay
[2] = test system: HepG2; experiment: Upregulation of endogenous ATG10S activated co-localisation of ZIKV-NS5 with LC3B in human HepG2 cells co-transfected with ZIKV-NS5 and ATG10-sMO by cellular immunofluorescence assay
[3] = test system: HepG2; experiment: Downregulation of HCV-NS5B in human HepG2 cells co-transfected with HCV-subreplicon and ATG10-misMO upto 10 uM incubated for 24 hrs by western blot analysis
[4] = test system: HepG2; experiment: Induction of autophagy in human HepG2 cells transfected with HCV subgenomic replicon assessed as HCV-NS5B/ATG10/ATG10S combination at 10 uM incubated for 24 hrs in presence of anti-LAMP2 antibodies by co-immunoprecipitation assay
[5] = test system: HepG2; experiment: Induction of autophagy in human HepG2 cells transfected with ZIKV-NS5 assessed as increase in ZIKV-NS5-LC3B interaction level at 10 uM incubated for 24 hrs in presence of anti-Flag antibodies by co-immunoprecipitation assay
[6] = test system: HepG2; experiment: Downregulation of HIV-RT in human HepG2 cells transfected with HIV-RT upto 10 uM incubated for 24 hrs by western blot analysis
[7] = test system: HepG2; experiment: Effect on HBx degradation in human HepG2 cells transfected with HBx at 10 uM pretreated with proteosome inhibitor MG132 for 12 hrs followed by compound addition and measured after 24 hrs by western blot analysis
[8] = test system: HepG2; experiment: Induction of autophagy in human HepG2 cells transfected with HCV subgenomic replicon assessed as HCV-CORE/P62 combination at 10 uM incubated for 24 hrs in presence of anti-LAMP2 antibodies by co-immunoprecipitation assay
[9] = test system: HepG2; experiment: Upregulation of HCV-CORE in human HepG2 cells transfected with HCV sub-replicon and gene knockdown by IL28A morpholinos at 10 uM incubated for 24 hrs by western blot analysis
[10] = test system: HepG2; experiment: Upregulation of endogenous ATG10S activated co-localisation of ZIKV-NS5 with LC3B in human HepG2 cells co-transfected with ZIKV-NS5 and ATG10-misMO by cellular immunofluorescence assay
[11] = test system: HepG2; experiment: Induction of autophagy in human HepG2 cells co-transfected with ATG10 or ATG10S assessed as increase in ATG10/ATG10S protein level upto 10 uM and measured after 6 hrs by western blot analysis; conditions: DDE = dose-dependent effect
[12] = test system: HepG2; experiment: Downregulation of HCV-CORE in human HepG2 cells transfected with HCV-subreplicon upto 10 uM incubated for 24 hrs by western blot analysis
[13] = test system: HepG2; experiment: Induction of autophagy in human HepG2 cells transfected with HIV-RT assessed as increase in HIV-RT-P62 interaction level at 10 uM incubated for 24 hrs in presence of anti-Flag antibodies by co-immunoprecipitation assay
[14] = test system: HepG2; experiment: Effect on P62 degradation in human HepG2 cells at 10 uM pretreated with proteosome inhibitor MG132 for 12 hrs followed by compound addition and measured after 24 hrs by western blot analysis
[15] = test system: HepG2; experiment: Induction of autophagy in human HepG2 cells transfected with HCV subgenomic replicon assessed as HCV-CORE/LAMP2 combination at 10 uM incubated for 24 hrs in presence of anti-LAMP2 antibodies by co-immunoprecipitation assay
[16] = test system: HepG2; experiment: Upregulation of ATG10/ATG10S mRNA level in human HepG2 cells transfected with HIV-RT upto 10 uM by RT-PCR analysis; conditions: DDE = dose-dependent effect
[17] = test system: HepG2; experiment: Upregulation of endogenous ATG10S activated co-localisation of ZIKV-NS5 with LAMP2 in human HepG2 cells co-transfected with ZIKV-NS5 and ATG10-sMO by cellular immunofluorescence assay
[18] = test system: HepG2; experiment: Upregulation of IL28A mRNA expression level in human HepG2 cells transfected with ZIKV-NS5 upto 10 uM by qRT-PCR analysis; conditions: DDE = dose-dependent effect
[19] = test system: HepG2; experiment: Induction of autophagy in human HepG2 cells transfected with HCV subgenomic replicon assessed as HCV-CORE/ATG10/ATG10S combination at 10 uM incubated for 24 hrs in presence of anti-LAMP2 antibodies by co-immunoprecipitation assay
[20] = test system: HepG2; experiment: Induction of autophagy in human HepG2 cells assessed as increase in IL28A protein level upto 10 uM and measured after 6 hrs by western blot analysis; conditions: DDE = dose-dependent effect
[21] = test system: HepG2; experiment: Downregulation of HBVx in human HepG2 cells transfected with HBVx upto 10 uM incubated for 24 hrs by western blot analysis
[22] = test system: HepG2; experiment: Upregulation of P62 in human HepG2 cells transfected with ZIKV-NS5 and gene knockdown by IL28A morpholinos at 10 uM incubated for 24 hrs by western blot analysis

Measured: Activity

CC[C@@H](O)c1nc(C)cc2c1C(=O)c1cc(=O)c3c(c(O)c1-2)O[C@@H]1O[C@H](C)[C@@H](OC)[C@@H](O)[C@]31O
active: [1] | [2] | [3] | [4] | [5] | [6] | [7] | [8] | [9] | [10] | [11] Dde | [12] | [13] | [14] | [15] | [16] Dde | [17] | [18] Dde | [19] | [20] Dde | [21] | [22]
